Assay results published in patent US4909257A, “Method for attaining in vivo tissue-specific contrast by nuclear magnetic resonance imaging” (priority 1989, dated 1990).

Key:
normal BALB/C mice = assay: Toxicity (acute lethality) after i.v. tail vein injection in mice; format: in vivo; settings: 0.2 mL, five BALB/C mice per dose group, 7 days
Method: Solutions were prepared to evaluate the toxicity of the chelators and ferric complexes of the chelators.
A 1.2 M stock ferric solution was prepared by dissolving 32 g of FeCl3 * 6 H2 O in 100 mL of 0.1 N HCl. It was standardized by EDTA titration using Variamine Blue B indicator.
A solution or suspension of 10 mmoles of each ligand in 20 mL of water was 70-80% neutralized by reaction with NaOH. The resulting solution (pH~9) was added dropwise to a solution of 10.1 mmoles of FeCl3 in 10 mL of water. The reaction mixture was adjusted to pH 7.0 with solid NaHCO3 and stirred at 60°-80° C. for two hours. It then was ccentrifuged, and the supernatant was filtered through a 0.22 micron filter. […] Th filtrate was concentrated on a rotary evaporator, the pH adjusted to 7.0, and the volume adjusted to 20 mL.
Tiron was obtained as the sodium salt. An aqueous 0.5 M solution was treated with a 2% excess of FeCl3, and the reaction mixture was worked up as above.
A suspension of 3.6 g (10 mmoles) of EHPG in 15 mL of water was reacted with 17 mL of 2 N NaOH. The resulting dark yellow-orange solution was added dropwise to a solution of 2.7 g […] of FeCl3 * 6 H2 O in 10 mL of water. The reaction mixture was warmed to 60°-80° C. and held at that temperature for 2 hours. The thick orange-red suspension was diluted to 120 mL and heated to 90°-100° C. The hot suspension was filtered through filter aid, and the filtrate was allowed to cool to room temperature.
Rather than crystallizing the product, the pH of the reaction mixture was adjusted to 7.0 with NaHCO3 and filtered. The filtrate was used for subsequent experiments after appropriate volume adjustments and Fe determination.
For each compound at each dose, five normal BALB/C mice weighing 19-22 g were treated with test solution by injection into the tail vein. The injection volumes were approximately 0.2 mL. The behavior and condition of the mice were monitored for 1 week.

[1] = Magnetic resonance imaging contrast enhancement (2 Tesla, coronal spin echo); format: in vivo, BALB/C mice; settings: for MRI: increase in signal intensity in the gall bladder: in contrast to Fe-EHPG and Fe-HBED; for MRI: urinary bladder concentration: mouse, in vivo
[2] = Organ distribution and clearance of 59Fe-labeled complexes; format: in vivo, BALB/C mice
Method: ^59 Fe was obtained as 0.06 M FeCl3 in 0.5 N HCl; the specific activity was approximately 20 mCi/mmole (1.2 mCi/mL). Labeled commplexes were preared by treating in a Teflon vial 10 uL of ^59 FeCl3 with 25 uL of 2.0×10^-2 M solution of ligand, followed by 0.25 mL of 0.36 M, pH 7.3 Na HEPES buffer and 0.74 mL of water. The reaction mixture was held at 80° C. for 2 hours and then treated with 0.2 mL of 0.12 M solution of Fe-ligand complex. The resulting solution was filtered through a 0.22 u filter. A 0.2 mL dose contained 0.004 mmole of Fe-chelate with 2 uCi of ^59 Fe. ^59 Fe acetate was prepared as above, but without addition of unlabeled carrier Fe acetate.
For each complex shown in FIG. 1, a group of five BALB/C mice were treated as above with 0.2 mmole/Kg of labeled Fe-complex containing approximately 2 uCi of ^59 Fe. The animals were counted immediately after injection and at 2 hours, 1, 2, 4, and 7 days. Whole body counts were obtained using a Nuclear Chicago Tobor chamber gamma counter. Raw counts were background-subtracted and back-decayed to t0, the time of injection. An ^59 Fe standard and background were counted at each time point.
After the appropriate time period, the animals were sacrificed and dissected. Organ weights were measured, and the organs were counted in a gamma counter. Due to its small size, the gall bladder was combined with the small intestine for weighing and counting. An ^59 Fe standard was also counted at each time point. Raw counts were background-subtracted and back-decayed to t0, the time of injection. Activity was computed as a fraction of injected dose per gram of tissue.

[3] = Dose needed for NMR contrast enhancement; format: in vivo; settings: doses as low as

O=C(O)CN(CC(=O)O)[C@@H]1CCCC[C@H]1N(CC(=O)O)CC(=O)O (relative stereo) [CDTA, trans-1,2-cyclohexanediaminotetraacetic acid]
LD-0 (maximum dose at which no mortality was observed for seven days post injection) (normal BALB/C mice): 0.05 mmol/kg
LD-100 (minimum dose for which 100% mortality was observed for seven days post injection) (normal BALB/C mice): 0.5 mmol/kg

CC(=O)N(O)CCCCCNC(=O)CCC(=O)N(O)CCCCCNC(=O)CCC(=O)N(O)CCCCCN [DF, Desferrioxamine B]
LD-0 (maximum dose at which no mortality was observed for seven days post injection) (normal BALB/C mice): 0.5 mmol/kg
LD-100 (minimum dose for which 100% mortality was observed for seven days post injection) (normal BALB/C mice): 1 mmol/kg

CC(=O)N([O-])CCCCCNC(=O)CCC(=O)N([O-])CCCCCNC(=O)CCC(=O)N([O-])CCCCCN.[Fe+3] [Fe--DF]
LD-0 (maximum dose at which no mortality was observed for seven days post injection) (normal BALB/C mice): 0.5 mmol/kg
LD-100 (minimum dose for which 100% mortality was observed for seven days post injection) (normal BALB/C mice): 2 mmol/kg
MRI: increase in signal intensity in the gall bladder [1]: essentially none in the gall bladder
MRI: urinary bladder concentration [1]: concentrated in the urinary bladder

O=C([O-])C(NCCNC(C(=O)[O-])c1ccccc1[O-])c1ccccc1[O-].[Fe+3] (stereo not drawn) [Fe--EHPG]
liver level of 59Fe over time ([2]; 0.2 mmole/Kg labeled Fe-complex, fraction of injected dose per gram of tissue, FIGS. 2 and 3): initially high and then decreased
large intestine levels at 6 hours ([2]; gut tissue and contents, final time of 6 hours): exceeded all of the other values
large intestine levels, up to the 2 hour time point ([2]; gut tissue and contents, up to 2 hours): started and remained lower than the liver or small intestine values
small intestine values over time ([2]; small intestine combined with gall bladder, out to 6 hours): initially low, rose to a maximum at about 1-2 hours, and then decreased out to 6 hours
time of maximum small intestine value ([2]; small intestine combined with gall bladder, printed as about): 1 to 2 h
lowest dose achieving NMR contrast enhancement [3]: 1 mg contrast agent per kilogram weight of the animal
LD-0 (maximum dose at which no mortality was observed for seven days post injection) (normal BALB/C mice): 0.9 mmol/kg
MRI: gall bladder contrast at 50 minutes ([1]; 50 minutes post-contrast): gall bladder contrast remains markedly high
MRI: liver intensity at 50 minutes ([1]; 50 minutes post-contrast): liver intensity has decreased
MRI: gall bladder enhancement, later ([1]; gradual, post-contrast): gradually becomes brighter than the surrounding liver
MRI: urinary bladder concentration [1]: concentrated in the urinary bladder
MRI: liver enhancement ([1]; post-contrast, initial): first concentrate in the liver
MRI: gall bladder enhancement, initial ([1]; while agent first concentrates in the liver): gall bladder remains unenhanced

O=C([O-])CN(CCO)CCN(CC(=O)[O-])CC(=O)[O-].[Fe+3] [Fe--HEDTA]
LD-100 (minimum dose for which 100% mortality was observed for seven days post injection) (normal BALB/C mice): 0.5 mmol/kg

GD-DTPA [reference compound]
MRI: increase in signal intensity in the gall bladder [1]: essentially none in the gall bladder
MRI: urinary bladder concentration [1]: concentrated in the urinary bladder
